Experimental data taken from PubChem BioAssay (NCI).
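Five compound concentrations were applied to cells in 96-well plates for 48 hours; endpoints were derived by simple linear interpolation of the resulting dose-response curve. GI50 marks 50% less growth. TGI denotes the concentration required for complete inhibition of growth.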

Columns and labels:
Assay in all cases: inhibition of tumour cell growth, NCI panel, 48 h
[1] = test system: SF-539 CNS
[2] = test system: MOLT-4 leukemia
[3] = test system: MDA-MB-231 breast
[4] = test system: A498 renal
[5] = test system: HS 578T breast
[6] = test system: OVCAR-5 ovarian
[7] = test system: T-47D breast
[8] = test system: HCT-15 colon
[9] = test system: SF-295 CNS
[10] = test system: U251 CNS

Row | SMILES | TGI [1] [µM] | TGI [2] [µM] | TGI [3] [µM] | TGI [4] [µM] | TGI [5] [µM] | TGI [6] [µM] | TGI [7] [µM] | TGI [8] [µM] | TGI [9] [µM] | TGI [10] [µM] | GI50 [1] [nM] | GI50 [2] [nM] | GI50 [3] [µM] | GI50 [4] [µM] | GI50 [5] [nM] | GI50 [6] [nM] | GI50 [7] [nM] | GI50 [8] [nM] | GI50 [9] [µM] | GI50 [10] [nM]
1 | C#CC1=CC(=O)C(OC)=CC1=O | > 100 | > 100 | 34.8 | > 100 | > 100 | > 100 | 87.5 | 32.3 | > 100 | > 100 |  |  |  |  |  |  |  |  |  | 
2 | O=C(CN(/C=C/C(=O)C(F)(F)F)c1ccc(Cl)cc1)c1ccc(Cl)c(Cl)c1 | 38 | 10.5 | 20.9 | 16.7 | 38.3 | 27.1 | 29.9 | 17.2 | 17.4 | 16.8 | 20100 | 2570 | 7.05 | 3.65 | 16600 | 13400 | 10300 | 4240 | 4.98 | 5370
3 | CCN(CC)CCCC(C)Nc1cc(-c2cccc(OC(F)(F)F)c2)nc2ccc(N3CCCC3)cc12 (stereo unspecified) | 0.508 | > 100 | 14.9 | 3.03 | 3.22 | > 100 | > 100 | 12.4 | 11.9 | 21.9 | 38.2 | 306 | 0.195 | 0.0301 | 33.7 | 348 | 54.2 | 41.5 | 0.0404 | 47.3
4 | COC(=O)Nc1nc2ccccc2[nH]1 | 50.5 | > 100 | > 100 | > 100 | > 95.4 | > 100 | > 100 | > 100 | 32.9 | > 100 |  |  |  |  |  |  |  |  |  | 
5 | CC(C)OC(=S)Nc1ccc(Cl)c(/C=N/OC(C)(C)C)c1 | 31.7 | 30.8 | 31.5 | 28.2 | 38.6 | 30.8 | 38.7 | 32.4 | 18.6 | 31.7 |  |  |  |  |  |  |  |  |  | 
6 | O=C1/C(=C/c2ccc(F)cc2)CN(C(=O)CCN2CCC(=NO)CC2)C/C1=C\c1ccc(F)cc1 | 4.07 | 7.97 | 3.54 | 2.63 | 6.51 | 4.11 | 9.55 | 2.6 | 4.72 | 2.09 | 1950 | 699 | 1.37 | 1.31 | 1710 | 1830 | 2560 | 691 | 2.06 | 630
7 | O=C(Nc1ccccc1I(=O)=O)C1CCCCC1 | > 100 | > 100 | > 100 | > 100 | > 100 | > 100 | > 100 | > 100 | > 100 | > 100 | > 100000 | 98500 | > 100 | > 100 | > 100000 | > 100000 | 58500 | > 100000 | > 100 | > 100000
8 | C#Cc1cccc(Nc2nc(Cl)nc3cc(NC(=O)CCl)ccc23)c1 | 5.59 | 1.64 | 2.73 | 6.32 | 9.17 | 4.45 | 1.65 | 2.03 | 7.33 | 1.14 | 2360 | 564 | 0.758 | 3.13 | 1430 | 1410 | 556 | 592 | 3.89 | 526
9 | Cn1cc(C2=C(c3c[nH]c4ccccc34)C(=O)NC2=O)c2ccccc21 | 1.14 |  | > 25 | 0.755 | > 25 | > 25 | > 25 | > 25 |  | > 25 | 195 | 458 | 9.06 | 0.169 | 151 | > 25000 | 846 | 1120 | 0.201 | 1360
10 | O=C(NCCCc1cn[nH]c1)c1ccc(-c2ccncc2)c(C#Cc2ccc(F)cc2)c1 | 14.5 | > 57 | > 100 | > 68.5 | > 100 | > 100 | 11 | > 57.9 | 47.9 | > 100 | < 10 | 1020 | 16.4 | 20.1 | 18900 | 122 |  | < 10 |  | 243
11 | Cc1ccc([N+](=O)[O-])c2c(NCCNC(=O)c3cc(C(=O)NCCNc4ccnc5c(C)ccc([N+](=O)[O-])c45)n(C)n3)ccnc12 | > 100 | > 46.4 | > 84.8 | > 100 | > 100 | > 100 | > 100 | > 100 | > 100 | > 100 |  |  |  |  |  |  |  |  |  | 
12 | O=C(O)/C(Cc1ccnc2ccccc12)=N\O | > 100 | > 100 | > 100 | > 100 | > 100 | > 100 | > 100 | > 100 | > 100 | > 100 |  |  |  |  |  |  |  |  |  | 
13 | Cc1cc(C)c(C#N)c(Sc2nc(C)c([N+](=O)[O-])c(C)c2C#N)n1 | 6 | > 100 | 51 | 27 | 8.51 | 41.1 | 5.59 | 6.25 | 59.4 | 10.8 | 2430 | 3030 | 4.7 | 13.1 | 2440 | 4030 | 2290 | 2320 | 14.2 | 3100
14 | CCCOC(=O)c1c(C)n(C)c2scc[n+]12 | > 100 | > 100 | > 100 | 71.9 | 74 | > 100 | > 100 | > 100 | > 100 | > 100 | 91200 | 53900 | > 100 | 24 | 19800 | > 100000 | 38500 | > 100000 | 41.7 | 34000
15 | O=C(O)/C(Cc1cn[nH]n1)=N\O | > 100 | > 100 | > 100 | > 100 | > 100 | > 100 | > 100 | > 100 | > 100 | > 100 |  |  |  |  |  |  |  |  |  | 
